Patent US20240300934A1, “COMPOUNDS FOR MODULATING MYCOBACTERIUM TUBERCULOSIS RESPONSE” (priority 2021, published 2024)
≈ marks a conversion by molar mass, not a printed value. Read-outs that look alike come from different tables or passages of the source.

Legend:
[1] = Kinetic aqueous solubility in pH 7.4 PBS; type: physicochemical; conditions: read-out: Kinetic Aqueous Solubility S
Experimental: (§1) Assays examining mouse and human liver microsomal stability, kinetic aqueous solubility, mouse and human plasma protein binding and stability, and human cytochrome P450 inhibition characteristics of the compounds were run by BioDuro, Incorporated, using standard protocols as previously described (Wang et al, 2020). hERG inhibition assays were also performed by BioDuro, Incorporated.

[2] = Mouse liver microsomal stability; type: in vitro ADME; conditions: mouse liver microsomes; for half-life: read-out: MLM t1/2
Experimental: as §1

[3] = tested on: rv2390c′::GFP reporter Mtb strain; type: cell-based, Mycobacterium tuberculosis; conditions: for rv2390c′::GFP Cl− response phenotype: compared to C6
[4] = tested on: Mtb in bone marrow-derived macrophages (BMDMs); assay: Mtb growth in primary murine bone marrow-derived macrophages (CFU); type: cell-based, Mycobacterium tuberculosis; conditions: 10 μM; added 2 hrs post-infection; eight-day time-course
Experimental: C57BL/6J wild type mice (Jackson Laboratories) were used for extraction of bone marrow-derived macrophages. Cells were harvested and expanded in DMEM containing 10% FBS, 15% L-cell conditioned media, 2 mM L-glutamine, 1 mM sodium pyruvate, and penicillin/streptomycin as needed in a 37° C. incubator in a 5% CO2 atmosphere. […] Macrophages were lysed with water containing 0.01% sodium dodecyl sulfate and a dilution series of the samples plated on 7H10 agar for CFU determination.

[5] = Mouse pharmacokinetics, single oral dose; type: in vivo, CD-1 mice; conditions: for Kp at 5 h / AUC(0-t): female, single 25 mg/kg po dose; for Kp at 5 h: CD-1, mouse, lung vs plasma, read-out: Mouse PK Clung/Cplasma at t = 5 h; for AUC(0-t): mouse, CD-1 mice, read-out: Mouse PK AUC0-5h
Experimental: Blood samples were collected in K2EDTA coated tubes pre-dose, 0.5, 1, 3 and 5 hrs post-dose, placed on ice, and centrifuged to recover plasma. The recovered plasma was kept at −80° C. as needed prior to analysis, which was performed as previously described (Wang et al, 2020). In brief, a Sciex Applied Biosystems Qtrap 4000 triple-quadrupole mass spectrometer coupled to an Agilent 1260 HPLC system was used for HPLC coupled to tandem mass spectrometry (LC-MS/MS) quantitative analysis of the samples, with chromatography attained using an Agilent Zorbax SB-C8 column (2.1×30 mm; particle size, 3.5 μm) and a reverse phase gradient elution. The aqueous mobile phase consisted of Milli-Q deionized water with 0.1% formic acid (A), while the organic mobile phase was 0.1% formic acid in acetonitrile (B). The gradient set-up was as follows: 5-90% B over 2 mins, 1 min at 90% B, then an immediate drop to 5% B and an additional 1 min at 5% B. Quantification of molecules was carried out via multiple-reaction monitoring of parent/daughter transitions in electrospray positive-ionization mode, and sample analyses accepted if quality control and standard samples had concentrations within 20% of the nominal concentration. Preparation of compounds for generation of standard curves and quality control spiking solutions were performed as previously described (Wang et al, 2020). Data were processed using Analyst software (Version 1.6.2; Applied Biosystems Sciex).

[6] = tested on: Mtb in J774 cells; assay: Mtb growth in J774 macrophage-like cells (mKO fluorescence); type: cell-based, Mycobacterium tuberculosis; conditions: for Inhibition of Mtb growth in J774 cells phenotype: compared to C6; for % Reduction of Intracellular Infection (J774.1 cells) at 10 μM cmpd: 10 μM compound
Experimental: For the tertiary screen of selected hit compounds in J774 murine macrophage-like cells, 30,000 J774 cells/well were seeded in bar-coded 384-well black, clear bottom plates in a 30 μl volume in J774 infection media (DMEM+10% FBS+1 mM sodium pyruvate+2 mM L-glutamine) using a ThermoFisher Multidrop Combi reagent dispenser, one day prior to assay start. On the day of the assay, log-phase Mtb constitutively expressing mKO were pelleted and resuspended in 1 ml basal uptake buffer (0.5% bovine serum albumin+25 mM dextrose+0.5 mM MgCl2+1 mM CaCl2+0.1% gelatin in phosphate buffered saline (PBS), passed 6× though a tuberculin syringe with a 25 G×5/8″ needle, then resuspended in J774 infection media to a final OD600=0.2. 10 μl of this bacterial suspension was added to each well of the 384-well plates containing the J774 cells, followed by addition of 10 μl of the appropriate compounds (pre-aliquoted in v-bottom plates in a 1:1 mix of PBS:J774 infection media). Addition of Mtb and compounds were conducted using a Janus Ministation. For each test plate, two columns of controls (16 wells each) were included, with one column consisting of treatment with DMSO as a carrier control (negative control), and the other column consisting of treatment with 5 μM rifampicin (positive control). This tertiary assay was done as a dose-response assay in duplicate runs, with compounds tested beginning at a final concentration of 20 μM and two-fold dilutions down to 0.039 μM. Plates were kept in humidified ziplock bags in a 37° C., 5% CO2 incubator. 6 days post-infection, mKO fluorescence signal was read using a PerkinElmer EnVision multimode plate reader (bottom read filter, excitation 530/8 nm, Bodipy TMR D555 single mirror, emission 579/25 nm). mKO fluorescence in DMSO-treated control samples were defined as 100% growth, and fluorescence observed in treatment conditions calculated as a percentage from that set value.
For J774 infection in 96-well plates, 180,000 J774 cells were seeded per well in 180 μl of J774 infection media one day prior to infection. On the day of the assay, log-phase Mtb constitutively expressing mKO were pelleted and resuspended in 1 ml basal uptake buffer, passed 6× though a tuberculin syringe with a 25 G×5/8″ needle, then resuspended in J774 infection media to a final OD600=0.2. Media was removed from 96-well plate containing the J774 cells, with 140 μl of fresh J774 infection media added back to each well. 40 μl of the Mtb suspension at OD600=0.2 was added to each well, followed by addition of appropriate concentration of compound or DMSO in a 20 μl final volume in J774 infection media (compound final concentration 10 μM, rifampicin final concentration 5 μM, DMSO final concentration 0.1%/well). Bacterial mKO fluorescence was read immediately after infection using a Biotek Synergy Neo2 microplate reader (bottom read monochromator, excitation 543/10 nm, emission 565/10 nm), and again 6 days post-infection. Plates were kept in humidified ziplock bags in a 37° C., 5% CO2 incubator. mKO fluorescence in DMSO-treated control samples were defined as 100% growth, and fluorescence observed in treatment conditions calculated as a percentage from that set value.

[7] = tested on: murine bone marrow derived macrophages phagosome; assay: Phagosomal maturation assays with sensor beads; type: cell-based, mouse; conditions: 10 μM
Experimental: Carboxyfluorescein (pH readout), DQ-BSA/Alexa Fluor 594 (AF594) (proteolysis readout), and 10,10′-Bis[3-carboxylpropyl]-9,9′-biacridinium (BAC)/AF594 (Cl^− readout) beads were generated as previously described (Podinovskaia et al, 2013; Tan et al, 2013; Tan et al, 2017; Yates et al, 2008). Bone marrow-derived macrophages were isolated from C57BL/6J mice (Jackson Laboratories) and maintained as described above. 2×10^5 macrophages/well were seeded into 96-well clear bottom black plates, and utilized in assays one-two days post-seeding. […] Assay buffer consisted of PBS, pH 7.2, supplemented with 5% FBS, 5 mM dextrose, 1 mM CaCl2, 2.7 mM KCl, and 0.5 mM MgCl2 in the case of assays with the carboxyfluorescein or DQ-BSA/AF594 beads (Buter et al, 2019; Dutta et al, 2020). For assays with the BAC/AF594 beads, assay buffer consisted of PBS, pH 7.2, supplemented with 5% FBS, 5 mM dextrose, 1 mM calcium acetate, 1.35 mM K2SO4, and 0.5 mM MgSO4 (Tan et al, 2013). Sensor beads at ˜2-5 beads/macrophage in appropriate assay buffer were finally added, with data acquisition on a Biotek Synergy H1 microplate reader with bottom read signal detection started within 2-3 minutes of bead addition. Excitation/emission wavelengths were 450 nm/520 nm and 490 nm/520 nm for carboxyfluorescein, 490 nm/520 nm for DQ-BSA, 365 nm/505 nm for BAC, and 590 nm/617 nm for AF594. Each experiment was run with a total of 3-5 replicate wells/condition, with temperature maintained at 37° C. throughout the assay. Wells were read every 2 minutes for 2 hours for the carboxyfluorescein bead assays, every 2 minutes for 4 hours for the DQ-BSA/AF594 bead assays, and every 1 minute for 2 hours for the BAC/AF594 bead assays. Analyses of the results were performed as previously described (Buter et al, 2019; Dutta et al, 2020; Podinovskaia et al, 2013; Tan et al, 2013).

[8] = tested on: Mtb; assay: Mtb growth assay in cholesterol media (OD600); type: cell-based, Mycobacterium tuberculosis; conditions: compared to C6
[9] = tested on: Mtb; assay: C3HeB/FeJ murine Mtb infection model; type: in vivo, C3HeB/FeJ mice; conditions: 150 mg/kg, 5 days/week oral gavage for 2 weeks, started 2 or 6 weeks post-infection
Experimental: C3HeB/FeJ wild type mice (Jackson Laboratories) were infected intranasally with 10^3 CFUs of Mtb (35 μl), under light anesthesia with 2% isoflurane (MacGilvary et al, 2019; Sukumar et al, 2014; Tan et al, 2013). […] The next day the suspension was homogenized by bead beating with 5 mm steel beads in a TOMY microtube mixer (2×20 s), and stored at 4° C. until use. […] Administration began at two or six weeks post-infection as indicated. At time of sacrifice, the left lobe and accessory right lobe of the lung were homogenized in PBS+0.05% Tween 80 and serial dilutions plated on 7H10 agar plates with 100 μg/ml cycloheximide for bacterial load determination. The remaining three right lobes were fixed in 4% PFA in PBS. One lobe was used for histological analysis by standard hematoxylin and eosin (H&E) staining (Tufts Comparative Pathology Services). A Nikon Eclipse E400 with a SPOT insight color digital camera was used to image the histology samples.

[10] = PBS, pH 7.4, aqueous buffer, kinetic from dmso stock, Table 2

Compound | rv2390c′::GFP Cl− response phenotype [3] | Inhibition of Mtb growth in J774 cells phenotype [6] | solubility kinetic [1, 10] | half-life [2] | Kp at 5 h [5] | AUC(0-t) ([5]; plasma) | % Reduction of Intracellular Infection (J774.1 cells) at 10 μM cmpd [6] | further results
O=C(c1cnc2ccccn12)N1CCCC(CCc2cccc(C(F)(F)F)c2)C1 (stereo not shown) [Compound C5, Imidazo[1,2-a]pyridin-3-yl(3-(3-(trifluoromethyl)phenethyl)piperidin-1-yl)methanone] | – | – | – | – | – | – | – | solubility kinetic ([1]; pH 7.4 phosphate buffered saline (PBS)): 6.67 µM (≈ 2.68 µg/mL); MLM t1/2 [2]: 4.98 min; rv2390c′::GFP reporter signal upon Mtb exposure to high [Cl−] (in words) ([3]; 10 μM, 250 mM NaCl): increased rv2390c′::GFP reporter signal; rv2390c′::GFP response phenotype ([3]; screen hits, high chloride (250 mM NaCl, pH 6.4)): Increases induction in high; Mtb bacterial load / growth in primary murine BMDM (in words) [4]: significant decrease in bacterial load; AUC0-5 h ([5]; single 5 mg/kg oral (po) dose, plasma, CD-1 mice (n=2)): 42 ng·h/mL; Mtb growth in J774 cells (in words) ([6]; 10 μM, 6 days post-infection): Mtb growth inhibition; inhibition at 10 µM ([6]; Mycobacterium tuberculosis, J774CELLS, J774, 144 h, read-out: % inhibition compared to Rif in J774 at 10 μM): 50.9 ± 3.2%; inhibition at 20 µM ([6]; Mycobacterium tuberculosis, J774CELLS, J774, 144 h, read-out: % inhibition compared to Rif in J774 at 20 μM): 55%
CCSc1ncc(CN2CCN(c3nc4ccccc4[nH]3)CC2)cn1 [JSF-4299, 2-(4-((2-(ethylthio)pyrimidin-5-yl)methyl)piperazin-1-yl)-1H-benzo[d]imidazole] | Y | Y | – | – | – | – | – | macrophage phagosomal proteolytic activity ([7]; DQ-BSA/AF594 beads): decrease in the extent of proteolysis; macrophage phagosomal acidification ([7]; carboxyfluorescein beads): delay in acidification; Growth inhibition in cholesterol media phenotype [8]: Y
CCSc1ncc(CN2CCN(c3nc4cc(C(F)(F)F)ccc4o3)CC2)cn1 [JSF-4526, 2-(4-((2-(ethylthio)pyrimidin-5-yl)methyl)piperazin-1-yl)-5-(trifluoromethyl)benzo[d]oxazole] | Y | Y | 38.6 µM (≈ 16.3 µg/mL) | 32 min | 0.44 | 27500 ng·h/mL | 52.4 ± 1.4% | –
CCSc1ncc(CN2CCN(c3nc4ccc(C)cc4o3)CC2)cn1 [JSF-4527, 2-(4-((2-(ethylthio)pyrimidin-5-yl)methyl)piperazin-1-yl)-6-methylbenzo[d]oxazole] | Y | Y | 13.7 µM (≈ 5.06 µg/mL) | 38.7 min | 0.55 | 16300 ng·h/mL | 53.8 ± 2.1% | –
CCSc1ncc(CN2CCN(c3nc4ccc(C#N)cc4o3)CC2)cn1 [JSF-4538, 2-(4-((2-(ethylthio)pyrimidin-5-yl)methyl)piperazin-1-yl)benzo[d]oxazole-6-carbonitrile] | Y | – | – | 25.5 min | 0.3 | 98700 ng·h/mL | 36.4 ± 2.6% | Mtb growth in vivo (lung CFUs) [9]: inhibits Mtb growth in vivo
